From the supplement of paper PMC7023306
± gives the uncertainty stated by the source.

Test: TIMS collision cross section in N2 (TIMS CCS N2); higher = larger gas-phase ion size
Details: drift gas: N2 (99.4% N2, 0.6% O2), calibration: Stow et al. 2017 values for Agilent ESI-L Low Concentration Tune Mix, ionization: negative ESI

| SMILES | TIMS collision cross section in N2 (ion species: [M-H+Na+HCO2H]-) [Å²] | TIMS collision cross section in N2 (ion species: [M-H]-) [Å²] | TIMS collision cross section in N2 (ion species: [2M-H]-) [Å²] | TIMS collision cross section in N2 (ion species: [M-H+HCO2H]-) [Å²] |
| --- | --- | --- | --- | --- |
| COc1cc(-c2cc(=O)c3c(O)c(OC)c(O)cc3o2)cc(OC)c1O [5,7,4'-trihydroxy-6,3',5'-trimethoxyflavone] | 202.32 ± 0.32 | 183.59 ± 0.17 | – | – |
| COc1cc(-c2cc(=O)c3c(O)c(OC)c(O)c(OC)c3o2)cc(O)c1OC [scaposin] | 209.41 ± 0.26 | 193.54 ± 0.18 | – | – |
| O=c1cc(-c2ccc(O)cc2)oc2cc(O)ccc12 [7,4'-dihydroxyflavone] | – | 157.01 ± 0.16 | 221.31 ± 0.038 | – |
| CC(C)=CCC/C(C)=C/Cc1c(O)cc2c(c1O)C(=O)C[C@@H](c1ccc(O)cc1)O2 [6-geranylnaringenin] | – | 204.76 ± 0.16 | 275.87 ± 0.17 | – |

More lines, now with the values ahead:

| TIMS collision cross section in N2 (ion species: [M-H+Na+HCO2H]-) [Å²] | TIMS collision cross section in N2 (ion species: [M-H]-) [Å²] | TIMS collision cross section in N2 (ion species: [2M-H]-) [Å²] | TIMS collision cross section in N2 (ion species: [M-H+HCO2H]-) [Å²] | SMILES |
| --- | --- | --- | --- | --- |
| 229.46 ± 0.98 | 218.03 ± 0.74 | – | – | C[C@H]1[C@H](C)CC[C@]2(C(=O)O)CC[C@]3(C)C(=CC[C@@H]4[C@@]5(C)CC[C@H](O)C(C)(C)[C@@H]5CC[C@]43C)[C@H]12 [Ursolic acid] |
| – | 156.4 ± 0.18 | 244.46 ± 0.1 | – | O=c1cc(-c2ccc(O)c(O)c2)oc2cccc(O)c12 [5,3',4'-Trihydroxyflavone] |
| – | 201.76 ± 0.7 | – | – | CC(C)=CCC1=C(O)C(C(=O)CC(C)C)=C(O)C(CC=C(C)C)(CC=C(C)C)C1=O [Lupulone] |
| – | 149.95 ± 0.12 | – | – | O=c1cc(-c2ccccc2O)oc2ccccc12 [2'-Hydroxyflavone] |
| – | 189.39 ± 0.39 | 277.92 ± 0.32 | 198.21 ± 0.31 | CCCCCCCCCCO[C@@H]1O[C@H](CO)[C@@H](O)[C@H](O)[C@H]1O [n-Decyl-beta-D-glucopyranoside] |
